Source: ChEMBL document CHEMBL1154976 (Bioorg Med Chem Lett, 2010)

Tests used:
Mu-type opioid receptor = Mu-type opioid receptor (Homo sapiens, UniProt P35372); test: Displacement of [3H]DAMGO from human mu opioid receptor expressed in CHO cell membranes after 60 mins by scintillation counting
[1] = biological target: Kappa-type opioid receptor (Homo sapiens, UniProt P41145); test: Displacement of [3H]U69,593 from human kappa opioid receptor expressed in CHO cell membranes after 60 mins by scintillation counting
[2] = biological target: Delta-type opioid receptor (Homo sapiens, UniProt P41143); test: Displacement of [3H]naltrindole from human delta opioid receptor expressed in CHO cell membranes after 3 hrs by scintillation counting
Homo sapiens [3] = species: Homo sapiens; test: Selectivity ratio of Ki for human delta opioid receptor to Ki for human mu opioid receptor
Homo sapiens [4] = species: Homo sapiens; test: Selectivity ratio of Ki for human kappa opioid receptor to Ki for human mu opioid receptor
Homo sapiens [5] = species: Homo sapiens; test: Selectivity ratio of Ki for human delta opioid receptor to Ki for human kappa opioid receptor
Homo sapiens [6] = species: Homo sapiens; test: Selectivity ratio of Ki for human mu opioid receptor to Ki for human kappa opioid receptor

Mu-type opioid receptor, sequence (P35372 whole entry): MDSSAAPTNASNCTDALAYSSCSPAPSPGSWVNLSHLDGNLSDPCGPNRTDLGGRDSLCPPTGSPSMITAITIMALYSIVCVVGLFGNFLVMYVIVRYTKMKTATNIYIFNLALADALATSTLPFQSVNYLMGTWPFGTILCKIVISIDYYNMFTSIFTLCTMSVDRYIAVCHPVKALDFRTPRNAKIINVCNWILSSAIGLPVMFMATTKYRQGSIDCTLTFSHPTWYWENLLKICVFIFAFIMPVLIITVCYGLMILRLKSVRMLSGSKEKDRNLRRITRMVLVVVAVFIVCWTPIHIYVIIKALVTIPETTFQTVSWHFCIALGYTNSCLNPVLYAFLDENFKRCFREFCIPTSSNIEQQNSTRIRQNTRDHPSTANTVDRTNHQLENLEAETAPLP
Delta-type opioid receptor, sequence (P41143 whole entry): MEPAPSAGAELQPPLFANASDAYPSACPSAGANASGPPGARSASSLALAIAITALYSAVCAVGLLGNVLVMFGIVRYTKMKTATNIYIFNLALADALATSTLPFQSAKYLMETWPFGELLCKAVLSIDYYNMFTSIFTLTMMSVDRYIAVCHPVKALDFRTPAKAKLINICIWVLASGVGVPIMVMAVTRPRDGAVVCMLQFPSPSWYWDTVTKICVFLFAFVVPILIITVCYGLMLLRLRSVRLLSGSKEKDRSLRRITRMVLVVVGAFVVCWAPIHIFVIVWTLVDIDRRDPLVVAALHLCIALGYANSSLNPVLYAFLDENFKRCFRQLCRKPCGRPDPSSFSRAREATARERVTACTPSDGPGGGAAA
Kappa-type opioid receptor, sequence (P41145 whole entry): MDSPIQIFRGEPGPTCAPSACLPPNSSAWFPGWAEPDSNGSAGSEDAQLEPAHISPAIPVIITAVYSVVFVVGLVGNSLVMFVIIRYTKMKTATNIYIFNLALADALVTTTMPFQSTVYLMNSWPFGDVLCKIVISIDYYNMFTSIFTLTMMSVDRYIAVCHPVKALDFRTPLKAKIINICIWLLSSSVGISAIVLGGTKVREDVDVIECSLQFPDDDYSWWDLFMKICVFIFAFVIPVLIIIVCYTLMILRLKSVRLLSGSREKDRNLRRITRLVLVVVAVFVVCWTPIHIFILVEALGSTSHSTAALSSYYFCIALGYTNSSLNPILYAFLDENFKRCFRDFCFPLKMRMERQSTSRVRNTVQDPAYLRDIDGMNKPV

Compound	Ki (Mu-type opioid receptor)	Ki [1]	Ki [2]	Ratio Ki (Homo sapiens [3])	Ratio Ki (Homo sapiens [4])	Ratio Ki (Homo sapiens [5])	Ratio Ki (Homo sapiens [6])
c1cc2c(cc1OCC1CO1)[C@@]13CCCC[C@H]1[C@@H](C2)N(CC1CCC1)CC3 (stereo partly specified)	7.3 nM	36 nM	200 nM	27	5		
CCCCCCCCCC(=O)Oc1ccc2c(c1)[C@@]13CCCC[C@H]1[C@@H](C2)N(CC1CCC1)CC3	0.21 nM	0.2 nM	20 nM	100		100	
OC(CCC(O)COc1ccc2c(c1)[C@@]13CCCC[C@H]1[C@@H](C2)N(CC1CCC1)CC3)COc1ccc2c(c1)[C@@]13CCCC[C@H]1[C@@H](C2)N(CC1CCC1)CC3 (stereo partly specified)	17 nM	12 nM	420 nM			35	1.4
OC(COc1ccc(Cc2ccc(OCC(O)COc3ccc4c(c3)[C@@]35CCCC[C@H]3[C@@H](C4)N(CC3CCC3)CC5)cc2)cc1)COc1ccc2c(c1)[C@@]13CCCC[C@H]1[C@@H](C2)N(CC1CCC1)CC3 (stereo partly specified)	0.24 nM	0.34 nM	29 nM	121	1.4		
OC(CCCCCCC(O)COc1ccc2c(c1)[C@@]13CCCC[C@H]1[C@@H](C2)N(CC1CCC1)CC3)COc1ccc2c(c1)[C@@]13CCCC[C@H]1[C@@H](C2)N(CC1CCC1)CC3 (stereo partly specified)	2.4 nM	1.4 nM	27 nM			19	1.7
c1cc2c(cc1OCCCOc1ccc3c(c1)[C@@]14CCCC[C@H]1[C@@H](C3)N(CC1CCC1)CC4)[C@@]13CCCC[C@H]1[C@@H](C2)N(CC1CCC1)CC3	7.1 nM	6.2 nM	180 nM			29	1.1
OC(COc1ccc2c(c1)[C@@]13CCCC[C@H]1[C@@H](C2)N(CC1CCC1)CC3)COc1ccc2c(c1)[C@@]13CCCC[C@H]1[C@@H](C2)N(CC1CCC1)CC3	0.95 nM	0.99 nM	37 nM	39		39	
c1cc2c(cc1OCCCCCCCCCCOc1ccc3c(c1)[C@@]14CCCC[C@H]1[C@@H](C3)N(CC1CCC1)CC4)[C@@]13CCCC[C@H]1[C@@H](C2)N(CC1CCC1)CC3				38	1.8		
OC(CCCC(O)COc1ccc2c(c1)[C@@]13CCCC[C@H]1[C@@H](C2)N(CC1CCC1)CC3)COc1ccc2c(c1)[C@@]13CCCC[C@H]1[C@@H](C2)N(CC1CCC1)CC3 (stereo partly specified)	12 nM	9.8 nM	160 nM			16	1.2
OC(COc1ccc2c(c1)[C@@]13CCCC[C@H]1[C@@H](C2)N(CC1CCC1)CC3)CC(O)COc1ccc2c(c1)[C@@]13CCCC[C@H]1[C@@H](C2)N(CC1CCC1)CC3 (stereo partly specified)	1.2 nM	0.17 nM	33 nM			194	7
OC(CCCCC(O)COc1ccc2c(c1)[C@@]13CCCC[C@H]1[C@@H](C2)N(CC1CCC1)CC3)COc1ccc2c(c1)[C@@]13CCCC[C@H]1[C@@H](C2)N(CC1CCC1)CC3 (stereo partly specified)	3.2 nM	3.3 nM	74 nM	23		23	
CCCCCCCCCCOc1ccc2c(c1)[C@@]13CCCC[C@H]1[C@@H](C2)N(CC1CCC1)CC3	70 nM						1.3
c1cc2c(cc1OCCCCOc1ccc3c(c1)[C@@]14CCCC[C@H]1[C@@H](C3)N(CC1CCC1)CC4)[C@@]13CCCC[C@H]1[C@@H](C2)N(CC1CCC1)CC3						40	1.6
OC(COc1ccccc1)COc1ccc2c(c1)[C@@]13CCCC[C@H]1[C@@H](C2)N(CC1CCC1)CC3 (stereo partly specified)	6.5 nM	22 nM	86 nM	13	13		
CCCCCCCCC(O)COc1ccc2c(c1)[C@@]13CCCC[C@H]1[C@@H](C2)N(CC1CCC1)CC3 (stereo partly specified)	7.4 nM	8.3 nM	52 nM	7	1.1		
OC(CCCCCC(O)COc1ccc2c(c1)[C@@]13CCCC[C@H]1[C@@H](C2)N(CC1CCC1)CC3)COc1ccc2c(c1)[C@@]13CCCC[C@H]1[C@@H](C2)N(CC1CCC1)CC3 (stereo partly specified)	4.8 nM	3.9 nM	99 nM			25	1.2
